Assay results as given in the NIST ThermoML archive (doi:10.1016/j.tca.2007.07.008).
Numbers after ± are expanded uncertainties.

How the values were obtained:
[1] = for mass density: 298.15 K, 101.33 kPa, Liquid, Vibrating tube method
[2] = refractive index (Na D-line) (dimensionless); conditions: 298.15 K; 101.33 kPa; Liquid; Standard Abbe refractometry

Row | SMILES | mass density [1] [kg/m3] | refractive index [2] | Normal melting temperature ([1]; Crystal) [°C]
1 | CNC=O [N-methylformamide] | 998.92 ± 0.3 | 1.4308 ± 0.0008 | 
2 | CN1C(=O)N(C)C2C1N(C)C(=O)N2C (stereo unspecified) [1,3,4,6-tetramethylglycoluril] |  |  | 228 ± 4
3 | CC(C)=O [acetone] | 784.65 ± 0.16 | 1.3563 ± 0.0007 | 

The next lines start with results.

Row | mass density [1] [kg/m3] | refractive index [2] | SMILES | Normal melting temperature ([1]; Crystal) [°C]
4 | 943.93 ± 0.13 | 1.4276 ± 0.0007 | CN(C)C=O [dimethylformamide] | 
5 | 936.5 ± 0.1 | 1.436 ± 0.0007 | CC(=O)N(C)C [N,N-dimethylethanamide] | 
6 | 1129.15 ± 0.2 | 1.4465 ± 0.0007 | NC=O [formamide] | 
